Consider one compound from patent US20100016360A1 (WYETH, priority 2008, published 2010).

Common to all, as to assay type: in vitro ADME
One data set addresses CYP3A4 (Homo sapiens, UniProt P08684). As to the kind of experiment: CYP3A4 inhibition.
The next data set has as its target CYP2D6 (Homo sapiens, UniProt P10635). Nature of the data set: CYP2D6 inhibition.
The next data set concerns the target CYP2C9 (Homo sapiens, UniProt P11712). As to the kind of experiment: CYP2C9 inhibition.

Chain of CYP2D6 (P10635 whole entry, species assumed): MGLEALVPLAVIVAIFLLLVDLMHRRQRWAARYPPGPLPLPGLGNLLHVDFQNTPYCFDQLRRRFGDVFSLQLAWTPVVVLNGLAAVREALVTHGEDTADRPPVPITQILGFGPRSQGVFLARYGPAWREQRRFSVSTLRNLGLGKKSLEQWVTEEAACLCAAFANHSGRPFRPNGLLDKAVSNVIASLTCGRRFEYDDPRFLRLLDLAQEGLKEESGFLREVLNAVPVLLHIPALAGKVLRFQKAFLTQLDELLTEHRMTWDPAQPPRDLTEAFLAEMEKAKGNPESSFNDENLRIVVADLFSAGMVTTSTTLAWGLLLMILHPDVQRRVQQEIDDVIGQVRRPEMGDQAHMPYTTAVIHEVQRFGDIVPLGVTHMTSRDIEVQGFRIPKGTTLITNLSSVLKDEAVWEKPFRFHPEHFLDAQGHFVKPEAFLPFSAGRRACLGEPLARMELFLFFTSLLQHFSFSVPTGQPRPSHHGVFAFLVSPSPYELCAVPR
Chain of CYP3A4 (P08684 whole entry, species assumed): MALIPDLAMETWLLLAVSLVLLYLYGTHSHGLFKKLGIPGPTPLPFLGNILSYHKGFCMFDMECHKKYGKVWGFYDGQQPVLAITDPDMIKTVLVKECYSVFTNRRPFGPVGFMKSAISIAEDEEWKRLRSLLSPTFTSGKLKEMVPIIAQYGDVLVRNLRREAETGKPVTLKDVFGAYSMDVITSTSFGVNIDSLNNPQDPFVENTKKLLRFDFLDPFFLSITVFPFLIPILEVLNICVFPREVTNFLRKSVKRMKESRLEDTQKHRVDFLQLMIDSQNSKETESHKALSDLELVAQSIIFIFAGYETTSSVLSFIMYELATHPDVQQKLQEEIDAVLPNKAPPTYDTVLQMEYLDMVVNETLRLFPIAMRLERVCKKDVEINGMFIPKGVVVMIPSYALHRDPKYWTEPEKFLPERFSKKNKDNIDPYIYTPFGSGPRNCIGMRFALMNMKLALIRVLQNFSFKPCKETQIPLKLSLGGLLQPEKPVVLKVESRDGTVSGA
Chain of CYP2C9 (P11712 whole entry, species assumed): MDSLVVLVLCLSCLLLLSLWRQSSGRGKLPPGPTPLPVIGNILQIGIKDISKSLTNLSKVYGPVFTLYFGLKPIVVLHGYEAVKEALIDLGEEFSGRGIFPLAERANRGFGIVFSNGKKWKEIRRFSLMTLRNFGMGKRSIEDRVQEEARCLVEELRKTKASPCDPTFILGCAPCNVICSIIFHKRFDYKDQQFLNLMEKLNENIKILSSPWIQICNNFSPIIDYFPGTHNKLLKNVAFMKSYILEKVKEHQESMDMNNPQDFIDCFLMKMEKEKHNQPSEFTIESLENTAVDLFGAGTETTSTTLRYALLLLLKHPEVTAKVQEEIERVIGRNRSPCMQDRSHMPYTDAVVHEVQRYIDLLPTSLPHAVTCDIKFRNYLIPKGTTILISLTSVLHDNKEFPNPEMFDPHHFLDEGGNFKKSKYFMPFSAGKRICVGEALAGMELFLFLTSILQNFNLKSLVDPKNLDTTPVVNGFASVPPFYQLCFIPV

As for `COc1ncccc1-c1ccc(NC(=O)NCCCCN2CCCCC2)cc1`, the CYP3A4 % inhibition on CYP3A4 is listed as −21%. This compound also returned a CYP2D6 % inhibition on CYP2D6 of 8%. The CYP2C9 % inhibition at CYP2C9 is −36%.
